Reference: patent US12232493B2, “Biopesticide formulation and treatment method thereof” (Xinjiang Institute of Ecology and Geography, Chinese …, priority 2023, dated 2025)
Like-named read-outs stand apart in the source and are kept apart here.

Experiments:
[1] = Solubility in water; assay type: physicochemical
[2] = tested on: mung bean; experiment: Pot experiment under drought treatment, terrein seed soaking or spraying, mung bean; assay type: in vivo
Method: (§1) An embodiment of effects of 2 μg/mL terrein formulation on the growth of four crops by seed soaking treatment under drought conditions is as follows. Terrein (purity 95%) is prepared as a solution with a concentration of 2 μg/mL in distilled water, and pakchoi, mung bean, sorghum, and wheat seeds are soaked in it for 6 hours, and the seeds are also soaked in distilled water as a blank control. Subsequently, the soaked crop seeds are sown into potted plants, and each of the treatment group is replicated five times. When the seedlings grew to about 10 cm, the drought treatment culture is carried out. The room temperature is 25° C., the humidity is 70%, 12 hours of light and 12 hours of darkness each day, and the light intensity is 80-100 μmol·m^−2·s^−1. During the period, the soil was kept in a dry state, and 200 mL is watered every week for 30 days, with a total of 800 mL. The drought culture conditions described below are all treated in the same way. After 30 days, the root length, seedling height, and fresh weight of pakchoi, mung bean, sorghum, and wheat are measured, and 10 seedlings are selected from each of the treatment groups, with a total of 50 plants (N=50), hereafter, they are dried in an oven and then measured dry weight. The growth rates of root length, seedling height, fresh weight, and dry weight of pakchoi, mung bean, sorghum, and wheat under 2 μg/mL compared to the blank control are first calculated, that is, An embodiment of effects of 10 μg/mL terrein formulation on the growth of four crops by seed soaking treatment under drought conditions is as follows. Terrein is prepared as a solution with a concentration of 10 μg/mL in distilled water, and pakchoi, mung bean, sorghum, and wheat seeds are soaked in it for 6 hours, and the seeds are also soaked in distilled water as a blank control. Subsequently, the soaked crop seeds are sown into potted plants. When the seedlings grew to about 10 cm, the drought treatment culture is carried out. After 30 days, the root length, seedling height, and fresh weight of pakchoi, mung bean, sorghum, and wheat are measured, hereafter, they are dried in an oven and then measured dry weight. An embodiment of effects of 2 μg/mL terrein formulation on the growth of four crops by spraying treatment under drought conditions is as follows. Seeds of four tested plants are soaked in distilled water and then sowing. Terrein is prepared as a solution with a concentration of 2 μg/mL in distilled water. When the potted pakchoi, mung bean, sorghum, and wheat grow to about 10 cm (15-20 days after sowing), spray them once, with an amount of about 3 mL, and distilled water sprayed used as blank control. Subsequently, the drought treatment culture is carried out. The room temperature is 25° C., the humidity is 70%, 12 hours of light and 12 hours of darkness each day, and the light intensity is 80-100 μmol·m^−2·s^−1. During the period, the soil was kept in a dry state, and 200 mL is watered every week for 30 days, with a total of 800 mL. After 30 days, the root length, seedling height, and fresh weight of pakchoi, mung bean, sorghum, and wheat are measured, hereafter, they are dried in an oven and then measured dry weight. An embodiment of effects of 10 μg/mL terrein formulation on the growth of four crops by spraying treatment under drought conditions is as follows. Seeds of four tested plants are soaked in distilled water and then sowing. Terrein is prepared as a solution with a concentration of 10 μg/mL in distilled water. When the potted pakchoi, mung bean, sorghum, and wheat grow to about 10 cm (15-20 days after sowing), spray them once, with an amount of about 3 mL, and distilled water sprayed used as blank control. Subsequently, the drought treatment is carried out. After 30 days, the root length, seedling height, and fresh weight of pakchoi, mung bean, sorghum, and wheat are measured, hereafter, they are dried in an oven and then measured dry weight. […]

[3] = tested on: pakchoi; experiment: Pot experiment under drought treatment, terrein seed soaking or spraying, pakchoi; assay type: in vivo
Method: as §1

[4] = tested on: pakchoi; experiment: Indoor petri dish bioassay, pakchoi under drought treatment conditions; assay type: in vivo; conditions: for inhibition at 250 µg/mL: terrein 250 μg/mL
Method: The present invention has done corresponding indoor petri dish bioassay experiments before, with pakchoi under drought treatment conditions as the recipient plant, terrein as the donor, and the concentration of terrein is set to 0, 2, 10, 50 and 250 μg/mL. […] Therefore, the present invention only selects low concentrations (2 μg/mL, 10 μg/mL) for experiments to confirm the effect of terrein on drought resistance and growth promotion of crops in outdoor pot experiments.

[5] = tested on: sorghum; experiment: Pot experiment under drought treatment, terrein seed soaking or spraying, sorghum; assay type: in vivo
Method: as §1

[6] = tested on: wheat; experiment: Pot experiment under drought treatment, terrein seed soaking or spraying, wheat; assay type: in vivo
Method: as §1

[7] = 2 μg/mL terrein seed soaking treatment, drought, 30 days
[8] = 2 μg/mL terrein seed soaking, drought, 30 days
[9] = 2 μg/mL terrein seed soaking, drought, 30 days, p<0.05
[10] = 2 μg/mL terrein spraying at seedling stage
[11] = 2 μg/mL terrein spraying treatment, drought, 30 days
[12] = 2 μg/mL terrein spraying, drought, 30 days
[13] = 10 μg/mL terrein seed soaking treatment, drought, 30 days
[14] = 10 μg/mL terrein seed soaking, drought
[15] = 10 μg/mL terrein seed soaking, drought, 30 days
[16] = 10 μg/mL terrein spraying treatment, drought, 30 days
[17] = 10 μg/mL terrein spraying, drought
[18] = 10 μg/mL terrein spraying, drought, 30 days

## C/C=C/C1=CC(=O)[C@H](O)[C@H]1O [terrein]
[1]
  solubility in water: easily soluble in water
[2]; 2 μg/mL terrein seed soaking
  effect on growth: significantly promote
[2]; [7]
  dry weight: 0.15 g
  fresh weight: 0.98 g
  root length: 14.19 cm
  seedling height: 22.54 cm
[2]; [8]
  growth rate of dry weight compared with the blank control: 28.07%
  growth rate of root length compared with the blank control: 44.72%
[2]; [9]
  effect on fresh weight compared with the blank control: not significant
  effect on seedling height compared with the blank control: not significant
[2]; [10]
  effect on growth: significant promoting effect
[2]; [11]
  dry weight: 0.14 g
  fresh weight: 0.92 g
  root length: 15.88 cm
  seedling height: 23.99 cm
[2]; [12]
  growth rate of root length compared with the blank control: 61.95%
[2]; [13]
  dry weight: 0.16 g
  fresh weight: 0.87 g
  root length: 12.84 cm
  seedling height: 24.21 cm
[2]; [14]
  effect on growth: significant promoting effect
[2]; [15]
  growth rate of dry weight compared with the blank control: 35.65%
  growth rate of root length compared with the blank control: 30.92%
[2]; [16]
  dry weight: 0.15 g
  fresh weight: 1.16 g
  root length: 15.42 cm
  seedling height: 22.08 cm
[2]; [17]
  effect on growth: significant promoting effects
[2]; [18]
  growth rate (promotion rate) of dry weight compared with the blank control: 26.98%
  growth rate (promotion rate) of fresh weight compared with the blank control: 56.18%
  growth rate (promotion rate) of root length compared with the blank control: 57.20%
[3]; 2 μg/mL terrein seed soaking
  effect on growth: significantly promote
[3]; [7]
  dry weight: 0.16 g
  fresh weight: 1.91 g
  root length: 15.46 cm
  seedling height: 11.45 cm
[3]; [8]
  growth rate of dry weight compared with the blank control: 32.47%
  growth rate of root length compared with the blank control: 76.63%
[3]; [9]
  effect on fresh weight compared with the blank control: not significant
  effect on seedling height compared with the blank control: not significant
[3]; [10]
  effect on growth: significant promoting effect
[3]; [11]
  dry weight: 0.13 g
  fresh weight: 1.75 g
  root length: 11.59 cm
  seedling height: 11.40 cm
[3]; [12]
  growth rate of root length compared with the blank control: 32.48%
[3]; [13]
  dry weight: 0.18 g
  fresh weight: 2.45 g
  root length: 17.43 cm
  seedling height: 12.21 cm
[3]; [14]
  effect on growth: significant promoting effect
[3]; [15]
  growth rate (promotion rate) of dry weight compared with the blank control: 49.12%
  growth rate (promotion rate) of fresh weight compared with the blank control: 40.34%
  growth rate (promotion rate) of root length compared with the blank control: 99.19%
  growth rate (promotion rate) of seedling height compared with the blank control: 15.66%
[3]; [16]
  dry weight: 0.14 g
  fresh weight: 1.85 g
  root length: 10.19 cm
  seedling height: 10.73 cm
[3]; [17]
  effect on growth: significant promoting effects
[3]; [18]
  growth rate of root length compared with the blank control: 16.45%
[4]; terrein 2 μg/mL
  promotion rate of pakchoi root length: 13.51%
  promotion rate of pakchoi seedling height: 21.70%
[4]; terrein 10 μg/mL
  promotion rate of pakchoi root length: 18.82%
  promotion rate of pakchoi seedling height: 23.26%
[4]; terrein 50 μg/mL
  effect on seedling height: not significant
[4]; terrein 50 μg/mL, read-out: inhibition rate of pakchoi root length
  inhibition at 50 µg/mL: 16%
[4]; read-out: inhibition rate of pakchoi root length
  inhibition at 250 µg/mL: 86.8%
[4]; read-out: inhibition rate of pakchoi seedling height
  inhibition at 250 µg/mL: 5.71%
[5]; [7]
  dry weight: 0.37 g
  fresh weight: 1.71 g
  root length: 35.67 cm
  seedling height: 40.43 cm
[5]; [8]
  effect on growth: no significant effect
[5]; [10]
  effect on growth: significant promoting effect
[5]; [11]
  dry weight: 0.40 g
  fresh weight: 1.92 g
  root length: 38.15 cm
  seedling height: 39.14 cm
[5]; [12]
  growth rate of dry weight compared with the blank control: 20.80%
  growth rate of fresh weight compared with the blank control: 18.92%
  growth rate of root length compared with the blank control: 18.49%
[5]; [13]
  dry weight: 0.38 g
  fresh weight: 1.88 g
  root length: 33.99 cm
  seedling height: 39.69 cm
[5]; [14]
  effect on growth: significant promoting effect
[5]; [15]
  growth rate of dry weight compared with the blank control: 15.42%
[5]; [16]
  dry weight: 0.42 g
  fresh weight: 1.93 g
  root length: 42.01 cm
  seedling height: 38.16 cm
[5]; [17]
  effect on growth: significant promoting effects
[5]; [18]
  growth rate (promotion rate) of dry weight compared with the blank control: 25.19%
  growth rate (promotion rate) of fresh weight compared with the blank control: 19.90%
  growth rate (promotion rate) of root length compared with the blank control: 30.50%
[6]; 2 μg/mL terrein seed soaking
  effect on growth: significantly promote
[6]; [7]
  dry weight: 0.26 g
  fresh weight: 1.10 g
  root length: 16.13 cm
  seedling height: 21.55 cm
[6]; [8]
  promotion rate of dry weight compared with the blank control: 21.99%
  promotion rate of fresh weight compared with the blank control: 52.30%
[6]; [10]
  effect on growth: significant promoting effect
[6]; [11]
  dry weight: 0.25 g
  fresh weight: 1.16 g
  root length: 17.02 cm
  seedling height: 18.93 cm
[6]; [12]
  growth rate of dry weight compared with the blank control: 16.29%
  growth rate of fresh weight compared with the blank control: 60.98%
[6]; [13]
  dry weight: 0.26 g
  fresh weight: 1.27 g
  root length: 18.96 cm
  seedling height: 20.25 cm
[6]; [14]
  effect on growth: significant promoting effect
[6]; [15]
  growth rate of dry weight compared with the blank control: 22.35%
  growth rate of fresh weight compared with the blank control: 76.39%
  growth rate of root length compared with the blank control: 25.09%
[6]; [16]
  dry weight: 0.29 g
  fresh weight: 1.42 g
  root length: 25.37 cm
  seedling height: 20.49 cm
[6]; [17]
  effect on growth: significant promoting effects
[6]; [18]
  growth rate (promotion rate) of dry weight compared with the blank control: 34.79%
  growth rate (promotion rate) of fresh weight compared with the blank control: 97.21%
  growth rate (promotion rate) of root length compared with the blank control: 67.40%
